# Test results from patent US10683269B2 (MISSION THERAPEUTICS LIMITED, priority 2016, dated 2020).
# Target: T1, USP7 (Homo sapiens, UniProt Q93009)
# T1 construct: The USP7 construct was PCR amplified and cloned into a pFLAG-CMV-6a vector (Sigma-Aldrich) with an N-terminal FLAG tag; made in house; host or cells: HEK293T
# Experiment: USP7 biochemical IC50 assay (fluorescence polarisation, TAMRA labelled peptide linked to ubiquitin via an iso-peptide bond)
# Settings: 30 min pre-incubation of enzyme and compound, read after 2 hr incubation at room temperature, read-out: IC50 range
# Procedure, shortened: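 Fluorescence polarisation at 540 nm excitation/590 nm emission, read immediately and after 2 hr at room temperature, following addition of 50 nM TAMRA-labelled iso-peptide ubiquitin substrate.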
# T1 sequence (Q93009 whole entry): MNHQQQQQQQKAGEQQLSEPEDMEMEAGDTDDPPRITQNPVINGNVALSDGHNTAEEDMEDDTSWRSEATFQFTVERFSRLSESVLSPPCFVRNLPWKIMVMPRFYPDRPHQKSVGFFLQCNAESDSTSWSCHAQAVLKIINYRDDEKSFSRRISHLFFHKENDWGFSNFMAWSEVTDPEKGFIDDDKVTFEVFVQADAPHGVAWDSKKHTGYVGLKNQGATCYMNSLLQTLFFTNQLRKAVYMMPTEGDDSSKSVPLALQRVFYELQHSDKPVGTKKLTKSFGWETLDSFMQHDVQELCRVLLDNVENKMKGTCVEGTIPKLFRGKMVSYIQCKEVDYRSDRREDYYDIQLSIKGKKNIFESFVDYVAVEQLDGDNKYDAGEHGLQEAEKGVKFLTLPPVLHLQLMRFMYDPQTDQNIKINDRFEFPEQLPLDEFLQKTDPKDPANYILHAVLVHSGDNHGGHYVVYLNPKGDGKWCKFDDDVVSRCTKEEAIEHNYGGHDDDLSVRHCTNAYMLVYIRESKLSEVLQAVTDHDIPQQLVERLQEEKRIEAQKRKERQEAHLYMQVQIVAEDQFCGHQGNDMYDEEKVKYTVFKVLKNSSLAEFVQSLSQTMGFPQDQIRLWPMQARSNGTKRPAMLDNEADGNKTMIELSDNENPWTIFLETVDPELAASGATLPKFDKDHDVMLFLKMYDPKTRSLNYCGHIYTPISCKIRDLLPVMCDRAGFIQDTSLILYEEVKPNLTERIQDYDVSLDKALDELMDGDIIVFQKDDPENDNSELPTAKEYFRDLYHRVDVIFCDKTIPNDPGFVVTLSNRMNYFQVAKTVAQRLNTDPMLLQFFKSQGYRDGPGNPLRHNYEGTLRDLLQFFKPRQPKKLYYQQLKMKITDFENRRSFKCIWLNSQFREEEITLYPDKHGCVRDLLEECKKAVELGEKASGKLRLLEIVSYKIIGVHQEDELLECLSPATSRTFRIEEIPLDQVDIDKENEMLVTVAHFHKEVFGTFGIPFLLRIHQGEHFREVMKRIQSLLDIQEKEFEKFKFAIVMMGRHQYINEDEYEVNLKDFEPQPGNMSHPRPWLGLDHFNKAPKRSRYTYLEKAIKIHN
row,SMILES,IC50
1,"CN1CCOC(CN(C)c2nc3c(c(-c4ccccc4)n2)CN(C#N)C3)C1 (stereo not drawn) [Example 191, 2-(methyl((4-methylmorpholin-2-yl)methyl)amino)-4-phenyl-5,7-dihydro-6H-pyrrolo[3,4-d]pyrimidine-6-carbonitrile]",1 to 10 µM
2,"CN1CCOC(CNc2nc3c(c(-c4cccnc4)n2)CN(C#N)C3)C1 (stereo not drawn) [Example 192, 2-(((4-methylmorpholin-2-yl)methyl)amino)-4-(pyridin-3-yl)-5,7-dihydro-6H-pyrrolo[3,4-d]pyrimidine-6-carbonitrile]",1 to 10 µM
3,"CN1CCOC(CNc2nc3c(c(-c4cccc(F)c4)n2)CN(C#N)C3)C1 (stereo not drawn) [Example 193, 4-(3-fluorophenyl)-2-(((4-methylmorpholin-2-yl)methyl)amino)-5,7-dihydro-6H-pyrrolo[3,4-d]pyrimidine-6-carbonitrile]",1 to 10 µM
4,"CN1CCOC(CNc2nc3c(c(-c4ccc(F)cc4)n2)CN(C#N)C3)C1 (stereo not drawn) [Example 194, 4-(4-fluorophenyl)-2-(((4-methylmorpholin-2-yl)methyl)amino)-5,7-dihydro-6H-pyrrolo[3,4-d]pyrimidine-6-carbonitrile]",1 to 10 µM
5,"CC(=O)Nc1cccc(-c2nc(NCC3CN(C)CCO3)nc3c2CN(C#N)C3)c1 (stereo not drawn) [Example 195, N-(3-(6-cyano-2-(((4-methylmorpholin-2-yl)methyl)amino)-6,7-dihydro-5H-pyrrolo[3,4-d]pyrimidin-4-yl)phenyl)acetamide]",1 to 10 µM
6,"N#Cc1ccc(-c2nc(NCCO)nc3c2CN(C#N)C3)cc1 [Example 208, 4-(4-cyanophenyl)-2-((2-hydroxyethyl)amino)-5,7-dihydro-6H-pyrrolo[3,4-d]pyrimidine-6-carbonitrile]",10 to 30 µM
7,"N#CN1Cc2nc(NCCO)nc(-c3ccc(F)c(F)c3)c2C1 [Example 209, 4-(3,4-difluorophenyl)-2-((2-hydroxyethyl)amino)-5,7-dihydro-6H-pyrrolo[3,4-d]pyrimidine-6-carbonitrile]",1 to 10 µM
8,"CC(=O)Nc1cccc(-c2nc(NCCO)nc3c2CN(C#N)C3)c1 [Example 210, N-(3-(6-cyano-2-((2-hydroxyethyl)amino)-6,7-dihydro-5H-pyrrolo[3,4-d]pyrimidin-4-yl)phenyl)acetamide]",1 to 10 µM
9,"COc1ccc(-c2nc(NCCO)nc3c2CN(C#N)C3)cc1 [Example 211, 2-((2-hydroxyethyl)amino)-4-(4-methoxyphenyl)-5,7-dihydro-6H-pyrrolo[3,4-d]pyrimidine-6-carbonitrile]",< 1 µM
10,"CN(C)Cc1cc2c(c(-c3ccccc3)c1)CN(C#N)C2 [Example 213, 6-((dimethylamino)methyl)-4-phenylisoindoline-2-carbonitrile]",1 to 10 µM
11,"CC(=O)NCc1cc2c(c(-c3ccccc3)c1)CN(C#N)C2 [Example 214, N-((2-cyano-7-phenylisoindolin-5-yl)methyl)acetamide]",1 to 10 µM
12,"COCCc1cc2c(c(-c3ccccc3)c1)CN(C#N)C2 [Example 215, 6-(2-methoxyethyl)-4-phenylisoindoline-2-carbonitrile]",1 to 10 µM
13,"CS(=O)(=O)Cc1cc2c(c(-c3ccc(C#N)cc3)c1)CN(C#N)C2 [Example 216, 4-(4-cyanophenyl)-6-((methylsulfonyl)methyl)isoindoline-2-carbonitrile]",1 to 10 µM
14,"CC(=O)NCc1cc2c(c(-c3ccc(C#N)cc3)c1)CN(C#N)C2 [Example 217, N-((2-cyano-7-(4-cyanophenyl)isoindolin-5-yl)methyl)acetamide]",1 to 10 µM
15,"CC(=O)N(C)Cc1cc2c(c(-c3ccc(C#N)cc3)c1)CN(C#N)C2 [Example 218, N-((2-cyano-7-(4-cyanophenyl)isoindolin-5-yl)methyl)-N-methylacetamide]",1 to 10 µM
16,"N#Cc1ccc(-c2cc(CNC(=O)C3CCOCC3)cc3c2CN(C#N)C3)cc1 [Example 219, N-((2-cyano-7-(4-cyanophenyl)isoindolin-5-yl)methyl)tetrahydro-2H-pyran-4-carboxamide]",1 to 10 µM
17,"N#Cc1ccc(-c2cc(CNC(=O)C3CCS(=O)(=O)CC3)cc3c2CN(C#N)C3)cc1 [Example 220, N-((2-cyano-7-(4-cyanophenyl)isoindolin-5-yl)methyl)tetrahydro-2H-thiopyran-4-carboxamide 1,1-dioxide]",1 to 10 µM
18,"Cn1cc(C(=O)NCc2cc3c(c(-c4ccc(C#N)cc4)c2)CN(C#N)C3)cn1 [Example 221, N-((2-cyano-7-(4-cyanophenyl)isoindolin-5-yl)methyl)-1-methyl-1H-pyrazole-4-carboxamide]",< 1 µM
19,"CS(=O)(=O)NCc1cc2c(c(-c3ccc(C#N)cc3)c1)CN(C#N)C2 [Example 222, N-((2-cyano-7-(4-cyanophenyl)isoindolin-5-yl)methyl)methanesulfonamide]",1 to 10 µM
20,"CN(C)C(=O)NCc1cc2c(c(-c3ccc(C#N)cc3)c1)CN(C#N)C2 [Example 223, 3-((2-cyano-7-(4-cyanophenyl)isoindolin-5-yl)methyl)-1,1-dimethylurea]",1 to 10 µM
21,"CC(C)OC(=O)NCc1cc2c(c(-c3ccc(C#N)cc3)c1)CN(C#N)C2 [Example 224, isopropyl ((2-cyano-7-(4-cyanophenyl)isoindolin-5-yl)methyl)carbamate]",1 to 10 µM
22,"CC(=O)NCc1cc2c(c(-c3ccccc3C#N)c1)CN(C#N)C2 [Example 225, N-((2-cyano-7-(2-cyanophenyl)isoindolin-5-yl)methyl)acetamide]",1 to 10 µM
23,"CC(=O)NCc1cc2c(c(-c3ccc(C#N)cc3C#N)c1)CN(C#N)C2 [Example 226, N-((2-cyano-7-(2,4-dicyanophenyl)isoindolin-5-yl)methyl)acetamide]",1 to 10 µM
24,"CNC(=O)NCc1cc2c(c(-c3ccc(C#N)cc3)c1)CN(C#N)C2 [Example 227, 1-((2-cyano-7-(4-cyanophenyl)isoindolin-5-yl)methyl)-3-methylurea]",< 1 µM
25,"CNC(=O)NCc1cc2c(c(-c3ccc(C#N)cc3C#N)c1)CN(C#N)C2 [Example 228, 1-((2-cyano-7-(2,4-dicyanophenyl)isoindolin-5-yl)methyl)-3-methylurea]",1 to 10 µM
26,"CNC(=O)NCc1cc2c(c(-c3ccccc3C#N)c1)CN(C#N)C2 [Example 229, 1-((2-cyano-7-(2-cyanophenyl)isoindolin-5-yl)methyl)-3-methylurea]",1 to 10 µM

# More lines, now with the values ahead:
row,IC50,SMILES
1,1 to 10 µM,"CN1CCCC(CNc2nc3c(c(N4CCc5ccccc5C4)n2)CN(C#N)C3)C1 (stereo not drawn) [Example 196, 4-(3,4-dihydroisoquinolin-2(1H)-yl)-2-(((1-methylpiperidin-3-yl)methyl)amino)-5,7-dihydro-6H-pyrrolo[3,4-d]pyrimidine-6-carbonitrile]"
2,1 to 10 µM,"CN1CCOC(CNc2nc3c(c(N4CCc5ccccc5C4)n2)CN(C#N)C3)C1 (stereo not drawn) [Example 197, 4-(3,4-dihydroisoquinolin-2(1H)-yl)-2-(((4-methylmorpholin-2-yl)methyl)amino)-5,7-dihydro-6H-pyrrolo[3,4-d]pyrimidine-6-carbonitrile]"
3,1 to 10 µM,"Cn1nccc1CNc1nc2c(c(N3CCc4ccccc4C3)n1)CN(C#N)C2 [Example 198, 4-(3,4-dihydroisoquinolin-2(1H)-yl)-2-(((1-methyl-1H-pyrazol-5-yl)methyl)amino)-5,7-dihydro-6H-pyrrolo[3,4-d]pyrimidine-6-carbonitrile]"
4,1 to 10 µM,N#CN1Cc2nc(N[C@H]3CC[C@H](O)CC3)nc(N3CCc4ccccc4C3)c2C1 [Example 199]
5,1 to 10 µM,"N#CN1Cc2nc(NCC3CCOCC3)nc(N3CCc4ccccc4C3)c2C1 [Example 200, 4-(3,4-dihydroisoquinolin-2(1H)-yl)-2-(((tetrahydro-2H-pyran-4-yl)methyl)amino)-5,7-dihydro-6H-pyrrolo[3,4-d]pyrimidine-6-carbonitrile]"
6,1 to 10 µM,"Cn1cc(CNc2nc3c(c(N4CCc5ccccc5C4)n2)CN(C#N)C3)cn1 [Example 201, 4-(3,4-dihydroisoquinolin-2(1H)-yl)-2-(((1-methyl-1H-pyrazol-4-yl)methyl)amino)-5,7-dihydro-6H-pyrrolo[3,4-d]pyrimidine-6-carbonitrile]"
7,1 to 10 µM,"N#CN1Cc2nc(NCCO)nc(N3CCc4ccccc4C3)c2C1 [Example 202, 4-(3,4-dihydroisoquinolin-2(1H)-yl)-2-((2-hydroxyethyl)amino)-5,7-dihydro-6H-pyrrolo[3,4-d]pyrimidine-6-carbonitrile]"
8,1 to 10 µM,"CN1CCOC(CN(C)c2nc3c(c(N4CCc5ccccc5C4)n2)CN(C#N)C3)C1 (stereo not drawn) [Example 203, 4-(3,4-dihydroisoquinolin-2(1H)-yl)-2-(methyl((4-methylmorpholin-2-yl)methyl)amino)-5,7-dihydro-6H-pyrrolo[3,4-d]pyrimidine-6-carbonitrile]"
9,1 to 10 µM,"CNc1nc2c(c(N3CCC(Oc4ccccc4)CC3)n1)CN(C#N)C2 [Example 204, 2-(methylamino)-4-(4-phenoxypiperidin-1-yl)-5,7-dihydro-6H-pyrrolo[3,4-d]pyrimidine-6-carbonitrile]"
10,1 to 10 µM,"CN(C)c1nc2c(c(N3CCC(Oc4ccccc4)CC3)n1)CN(C#N)C2 [Example 205, 2-(dimethylamino)-4-(4-phenoxypiperidin-1-yl)-5,7-dihydro-6H-pyrrolo[3,4-d]pyrimidine-6-carbonitrile]"
11,1 to 10 µM,"N#CN1Cc2nc(NCCO)nc(N3CCC(Oc4ccccc4)CC3)c2C1 [Example 206, 2-((2-hydroxyethyl)amino)-4-(4-phenoxypiperidin-1-yl)-5,7-dihydro-6H-pyrrolo[3,4-d]pyrimidine-6-carbonitrile]"
12,10 to 30 µM,"N#CN1Cc2nc(N)nc(N3CCC(Oc4ccccc4)CC3)c2C1 [Example 207, 2-amino-4-(4-phenoxypiperidin-1-yl)-5,7-dihydro-6H-pyrrolo[3,4-d]pyrimidine-6-carbonitrile]"
13,1 to 10 µM,"CN1CCN(c2ccc(-c3nc(NCCO)nc4c3CN(C#N)C4)cc2)CC1 [Example 212, 2-((2-hydroxyethyl)amino)-4-(4-(4-methylpiperazin-1-yl)phenyl)-5,7-dihydro-6H-pyrrolo[3,4-d]pyrimidine-6-carbonitrile]"
